# In publication PMC9414551 (Pharmaceuticals, 2022):
# Key:
# NR1-2B NMDAR [1] = target: T1, NR1-2B NMDAR (Homo sapiens, UniProt Q05586+Q13224); test: cell-based; assay type: cell-based; design: host or cells: CHO (CHO-hNR1-h2B), constitutive expression
# NR1-2C NMDAR [2] = target: T2, NR1-2C NMDAR (Homo sapiens, UniProt Q05586+Q14957); test: cell-based; assay type: cell-based; design: host or cells: CHO (CHO-hN1-h2C), tetracycline-induced expression
# NR1-2D NMDAR [3] = target: T3, NR1-2D NMDAR (Homo sapiens, UniProt O15399+Q05586); test: cell-based; assay type: cell-based; design: host or cells: CHO (CHO-hN1-h2D), tetracycline-induced expression
# NR1-2A NMDAR [4] = target: T4, NR1-2A NMDAR (Homo sapiens, UniProt Q05586+Q12879); test: cell-based; assay type: cell-based; design: host or cells: CHO (CHO-hNR1-h2A), tetracycline-induced expression
# NR1-2B NMDAR [5] = target: T1, NR1-2B NMDAR; test: Whole-cell automated patch-clamp (QPatch) in 1 mM Mg2+; assay type: cell-based; design: host or cells: CHO (CHO-hNR1-h2B), constitutive expression; settings: 1 mM MgCl2, 10 μM L-glutamate, 10 μM glycine
# Description: (§1) Data were obtained in automated patch-clamp platform. […] Statistical results of one-way analysis of variance (ANOVA) followed by Tukey’s multiple comparisons test also reported p < 0.05 (*), p < 0.01 (**), p < 0.001 (***), and p < 0.0001 (****). Glu is glutamate.
# (§2) For QPatch experiments, cells were grown in T-flasks first at 37 °C, 5% CO2 for 3 to 4 h, then at 30 °C, 5% CO2 for 18 to 24 h in DMEM/F12 medium with added 500 μM ketamine and 10 μg/mL tetracycline (except for NR1-2B-CHO cells) without additional antibiotics. Cells were manually detached from the culture dish and automatically dispensed in QPatch wells with extracellular solution in the presence of 1 mM Mg^2+ and 500 μM ketamine.
# (§3) Holding potential was −80 mV, and voltage protocol included a depolarizing 2-s step pulse to +60 mV to check the quality of the seal and cell NMDAR expression level, followed by a 2-s ramp-up to holding potential.
# NR1-2C NMDAR [6] = target: T2, NR1-2C NMDAR; test: as above; assay type: cell-based; design: host or cells: CHO (CHO-hN1-h2C), tetracycline-induced expression; settings: 1 mM MgCl2, 10 μM L-glutamate, 10 μM glycine
# Description: as §1, §2, §3
# NR1-2D NMDAR [7] = target: T3, NR1-2D NMDAR; test: as above; assay type: cell-based; design: host or cells: CHO (CHO-hN1-h2D), tetracycline-induced expression; settings: 1 mM MgCl2, 10 μM L-glutamate, 10 μM glycine
# Description: as §1, §2, §3
# NR1-2A NMDAR [8] = target: T4, NR1-2A NMDAR; test: as above; assay type: cell-based; design: host or cells: CHO (CHO-hNR1-h2A), tetracycline-induced expression; settings: 1 mM MgCl2, 10 μM L-glutamate, 10 μM glycine
# Description: as §1, §2, §3
# NMDAR = target: NMDAR; design: method as in Eurofins Panlabs Discovery Services Taiwan; settings: assay parameter of the contract laboratory; ref Eurofins Panlabs Discovery Services Taiwan; read-out: Kd of the radioligand; cited from earlier work
# T4 sequence (Q12879 23-1464, other chains not shown): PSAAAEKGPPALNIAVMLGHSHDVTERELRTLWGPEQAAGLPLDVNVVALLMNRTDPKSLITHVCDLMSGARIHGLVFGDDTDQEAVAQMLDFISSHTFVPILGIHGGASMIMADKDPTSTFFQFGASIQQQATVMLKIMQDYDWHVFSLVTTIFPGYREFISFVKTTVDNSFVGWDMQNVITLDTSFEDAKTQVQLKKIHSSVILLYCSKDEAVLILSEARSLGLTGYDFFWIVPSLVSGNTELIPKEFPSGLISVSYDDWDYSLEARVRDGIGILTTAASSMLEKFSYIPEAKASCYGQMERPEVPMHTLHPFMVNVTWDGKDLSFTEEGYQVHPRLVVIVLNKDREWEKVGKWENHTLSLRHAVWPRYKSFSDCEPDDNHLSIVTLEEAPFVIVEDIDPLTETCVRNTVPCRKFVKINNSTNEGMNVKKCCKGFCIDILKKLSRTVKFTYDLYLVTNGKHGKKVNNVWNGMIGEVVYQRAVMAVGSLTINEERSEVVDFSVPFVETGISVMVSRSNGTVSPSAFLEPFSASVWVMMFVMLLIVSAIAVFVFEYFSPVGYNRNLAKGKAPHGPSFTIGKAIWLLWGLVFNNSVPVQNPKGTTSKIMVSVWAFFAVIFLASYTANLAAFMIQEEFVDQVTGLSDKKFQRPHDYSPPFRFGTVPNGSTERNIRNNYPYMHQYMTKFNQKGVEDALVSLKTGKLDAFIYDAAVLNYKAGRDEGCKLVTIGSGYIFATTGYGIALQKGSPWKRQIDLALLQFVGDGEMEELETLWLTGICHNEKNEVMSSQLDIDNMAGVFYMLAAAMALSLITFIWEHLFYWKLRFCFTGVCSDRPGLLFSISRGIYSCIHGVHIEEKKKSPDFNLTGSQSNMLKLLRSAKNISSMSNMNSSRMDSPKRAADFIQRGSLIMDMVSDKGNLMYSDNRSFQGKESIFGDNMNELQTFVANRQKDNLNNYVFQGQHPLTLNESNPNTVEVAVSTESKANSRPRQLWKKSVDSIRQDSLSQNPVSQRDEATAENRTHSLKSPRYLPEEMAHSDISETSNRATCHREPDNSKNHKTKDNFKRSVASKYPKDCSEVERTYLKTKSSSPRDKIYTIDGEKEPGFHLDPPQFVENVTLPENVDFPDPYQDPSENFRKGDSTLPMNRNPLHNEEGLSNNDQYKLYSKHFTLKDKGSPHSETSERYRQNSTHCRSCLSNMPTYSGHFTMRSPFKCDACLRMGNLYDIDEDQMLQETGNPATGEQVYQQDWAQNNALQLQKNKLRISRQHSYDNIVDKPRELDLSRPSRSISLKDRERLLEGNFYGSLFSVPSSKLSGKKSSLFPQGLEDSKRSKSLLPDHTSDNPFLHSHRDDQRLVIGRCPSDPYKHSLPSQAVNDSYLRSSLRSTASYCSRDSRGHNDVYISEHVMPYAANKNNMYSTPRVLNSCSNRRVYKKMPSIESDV
# T1 sequence (Q13224 27-1484, other chains not shown): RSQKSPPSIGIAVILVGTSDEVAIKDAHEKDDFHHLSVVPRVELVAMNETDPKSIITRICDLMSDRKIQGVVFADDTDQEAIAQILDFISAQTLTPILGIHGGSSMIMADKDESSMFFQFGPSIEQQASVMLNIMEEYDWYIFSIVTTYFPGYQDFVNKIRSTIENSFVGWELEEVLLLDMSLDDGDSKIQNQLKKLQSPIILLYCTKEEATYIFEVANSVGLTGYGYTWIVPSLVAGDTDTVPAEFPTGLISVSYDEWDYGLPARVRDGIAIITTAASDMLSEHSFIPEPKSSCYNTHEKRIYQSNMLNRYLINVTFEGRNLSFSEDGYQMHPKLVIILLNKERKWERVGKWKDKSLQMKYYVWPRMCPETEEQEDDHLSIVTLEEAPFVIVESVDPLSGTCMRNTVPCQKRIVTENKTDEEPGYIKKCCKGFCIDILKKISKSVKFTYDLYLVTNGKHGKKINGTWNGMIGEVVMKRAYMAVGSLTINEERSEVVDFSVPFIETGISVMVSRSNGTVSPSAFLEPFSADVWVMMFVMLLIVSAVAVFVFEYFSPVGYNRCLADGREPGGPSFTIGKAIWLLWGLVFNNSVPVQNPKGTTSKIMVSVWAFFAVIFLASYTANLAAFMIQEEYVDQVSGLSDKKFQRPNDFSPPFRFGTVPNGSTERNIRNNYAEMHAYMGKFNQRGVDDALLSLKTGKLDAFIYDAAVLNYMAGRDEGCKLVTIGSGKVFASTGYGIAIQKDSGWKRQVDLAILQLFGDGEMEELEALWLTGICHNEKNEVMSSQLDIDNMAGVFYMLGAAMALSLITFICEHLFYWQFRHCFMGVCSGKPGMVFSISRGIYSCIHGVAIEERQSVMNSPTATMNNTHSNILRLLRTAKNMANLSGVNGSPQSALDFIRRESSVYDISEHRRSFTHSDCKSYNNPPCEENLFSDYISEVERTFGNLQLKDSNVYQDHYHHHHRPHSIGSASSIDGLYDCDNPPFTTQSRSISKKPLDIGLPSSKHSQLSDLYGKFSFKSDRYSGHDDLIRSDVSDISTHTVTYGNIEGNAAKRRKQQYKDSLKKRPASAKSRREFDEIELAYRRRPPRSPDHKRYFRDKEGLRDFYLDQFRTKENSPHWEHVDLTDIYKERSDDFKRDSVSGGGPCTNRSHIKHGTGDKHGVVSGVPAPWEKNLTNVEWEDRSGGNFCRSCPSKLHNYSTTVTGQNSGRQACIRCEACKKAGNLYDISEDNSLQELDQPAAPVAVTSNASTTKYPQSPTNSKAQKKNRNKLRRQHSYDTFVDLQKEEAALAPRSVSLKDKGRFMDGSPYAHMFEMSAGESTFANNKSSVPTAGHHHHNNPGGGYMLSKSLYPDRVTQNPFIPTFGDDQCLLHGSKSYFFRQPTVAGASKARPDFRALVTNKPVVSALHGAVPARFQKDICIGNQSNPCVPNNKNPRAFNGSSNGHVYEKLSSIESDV
# T3 sequence (O15399 28-1336, other chains not shown): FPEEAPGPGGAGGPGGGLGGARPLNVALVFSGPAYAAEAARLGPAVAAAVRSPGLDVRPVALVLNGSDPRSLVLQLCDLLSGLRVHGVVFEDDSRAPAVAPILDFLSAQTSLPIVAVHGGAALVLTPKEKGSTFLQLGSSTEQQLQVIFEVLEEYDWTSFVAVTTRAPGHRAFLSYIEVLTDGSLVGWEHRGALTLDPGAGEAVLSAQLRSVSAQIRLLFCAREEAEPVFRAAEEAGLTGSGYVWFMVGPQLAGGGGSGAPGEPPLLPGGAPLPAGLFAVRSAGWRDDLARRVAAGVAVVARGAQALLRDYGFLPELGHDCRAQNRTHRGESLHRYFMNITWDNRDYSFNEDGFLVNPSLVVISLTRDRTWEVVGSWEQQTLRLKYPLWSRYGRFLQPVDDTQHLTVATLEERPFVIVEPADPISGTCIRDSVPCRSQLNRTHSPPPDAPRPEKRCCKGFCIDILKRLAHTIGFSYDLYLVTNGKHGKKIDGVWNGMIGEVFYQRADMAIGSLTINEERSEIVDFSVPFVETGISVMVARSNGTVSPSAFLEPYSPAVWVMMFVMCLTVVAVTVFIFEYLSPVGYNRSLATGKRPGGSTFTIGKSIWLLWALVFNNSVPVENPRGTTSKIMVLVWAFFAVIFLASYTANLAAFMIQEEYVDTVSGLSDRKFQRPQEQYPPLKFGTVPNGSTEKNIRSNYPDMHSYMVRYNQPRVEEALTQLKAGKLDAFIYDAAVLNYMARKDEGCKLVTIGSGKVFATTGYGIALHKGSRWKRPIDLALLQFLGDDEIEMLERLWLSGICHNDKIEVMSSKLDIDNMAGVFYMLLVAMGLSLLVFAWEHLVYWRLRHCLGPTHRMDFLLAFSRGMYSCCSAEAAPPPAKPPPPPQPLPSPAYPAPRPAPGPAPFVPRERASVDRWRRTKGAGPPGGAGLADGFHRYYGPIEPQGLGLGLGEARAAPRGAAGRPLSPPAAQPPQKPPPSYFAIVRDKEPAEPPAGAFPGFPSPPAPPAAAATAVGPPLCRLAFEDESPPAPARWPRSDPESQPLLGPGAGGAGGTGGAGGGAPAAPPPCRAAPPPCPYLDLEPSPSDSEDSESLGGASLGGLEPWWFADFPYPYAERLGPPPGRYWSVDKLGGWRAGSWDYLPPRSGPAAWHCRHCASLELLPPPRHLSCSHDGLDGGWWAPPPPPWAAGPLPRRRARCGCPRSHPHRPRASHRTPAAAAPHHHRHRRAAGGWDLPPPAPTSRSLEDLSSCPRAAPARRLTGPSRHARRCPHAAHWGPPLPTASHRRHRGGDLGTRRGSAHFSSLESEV
compound,measurement,setting,value
N[C@@H](CCC(=O)O)C(=O)O [L-glutamate],"L-glutamate Max. (maximal asymptote), alone",NR1-2B NMDAR [1],111%
same,"L-glutamate Max. (maximal asymptote), alone",NR1-2C NMDAR [2],106%
same,"L-glutamate Max. (maximal asymptote), alone",NR1-2D NMDAR [3],105%
same,"L-glutamate Max. (maximal asymptote), alone",NR1-2A NMDAR [4],106%
[Cl-].[Cl-].[Mg+2] [MgCl2],current at −60 mV normalized to −30 mV current (100%),NR1-2B NMDAR [5],26 ± 1.8%
same,current at −60 mV normalized to −30 mV current (100%),NR1-2C NMDAR [6],64 ± 5.6%
same,current at −60 mV normalized to −30 mV current (100%),NR1-2D NMDAR [7],55 ± 1.8%
same,current at −60 mV normalized to −30 mV current (100%),NR1-2A NMDAR [8],24 ± 2.4%
c1csc(C2(N3CCCCC3)CCCCC2)c1 [[^3H]TCP],Kd,NMDAR,8.4 nM
